Paper PMC12631873 (Advanced Science, 2025)
Square brackets hold non-standard residues; d marks the D form. Peptide text beside a SMILES is read from it. * marks the point of attachment. X1 = CN1/C(=C/C=C/C=C/C2=[N+](CCCCCC(=O)*)c3ccc(S(=O)(=O)[O-])cc3C2(C)C)C(C)(C)c2cc(S(=O)(=O)O)ccc21; Hyp = O=C(O)[C@@H]1C[C@@H](O)CN1; Nlys = NCCCCNCC(=O)O; Ahx = NCCCCCC(=O)O

What was measured:
cartilage = experiment: In vivo and ex vivo fluorescence imaging of cartilage uptake and retention in nude mice; parameters: species or system mouse
Source text: All procedures for mouse maintenance and experiments strictly followed the policy of the Experimental Animal Ethics Committee of the Fifth Affiliated Hospital of Sun Yat‐sen University (protocol numbers: 00361, 00436). Balb/c nu mice (male, 10‐18 weeks old) were used for the general in vivo imaging experiments (Figure 3c–f; Figures S10–S14, Supporting Information). For Figure 3g,h and Figure S16 (Supporting Information), neonatal Balb/c mice (7 days old) were used. Female Balb/c mice (74 weeks old versus 12 weeks old) were used in the aged joint imaging experiment reported in Figure 4a–c and Figure S17 (Supporting Information). The RA model was made using female Balb/c mice (6‐8 weeks old) by intraperitoneal injection of an anti‐collagen antibody cocktail (1.5 mg per mouse; Chondrex, 53100) followed by selective subcutaneous injection of lipopolysaccharide (LPS, 12.5 µg per mouse, Chondrex, 53100) into the left hind paw three days later.^[ [30] ^] C57BL/6J mice (male, 6–8 weeks old) were used for the biocompatibility tests (Figures S23–S25, Supporting Information).
Typically, the fluorescence peptides or peptoids were prepared at a dose of 1 nmol (10 µM in 100 µL of 1× PBS buffer) and injected into the tail vein of each mouse 2 h prior to fluorescence imaging with an IVIS Spectrum imager (PerkinElmer Lumina III). For Figure 4, Figures S17 and S18 (Supporting Information) (joint aging and RA) and Figure S27 (Supporting Information), 2 nmol of Cy5‐(NlysO)7 (20 µM in 100 µL of 1× PBS buffer) were i.v. administered to each mouse. For 1‐week‐old neonatal mice, 1 nmol of Cy5‐(NlysO)7 (20 µM in 50 µL of 1× PBS buffer) was intravenously injected into each mouse. All in vivo imaging was performed 2 h post probe injection with the IVIS Spectrum imager (PerkinElmer, fluorescence: ex/em: 620/670 nm, exposure: 1 s, bing: 4, F/Stop: 2; field of view: A/B/C/Z). Mice were anesthesia with 3% isoflurane (RWD, R510‐22‐10) during image acquisition. Hair in the knee areas was removed before fluorescence imaging for mice in Figure 4a and Figure S17 (Supporting Information). The mice were euthanized following the final image acquisition and occasionally imaged again after skin and organ removal. Next, the airways, ankles, ears, paws, knees, tails, spines, and chest ribs were collected, imaged, and saved for subsequent histology analysis. All acquired fluorescence images were analyzed using the Living Image software (PerkinElmer). The fluorescence signal from each specimen was measured by quantifying the average radiation efficiency within the selected oval‐shaped regions‐of‐interest.
For the cartilage retention experiments (Figures S11 and S12, Supporting Information), Cy5‐(NlysO)7 (10 µM in 100 µL of 1× PBS buffer) was administered via tail vein to four male Balb/c nu mice (10 weeks old) at 2, 24, 48, and 96 h respectively, prior to fluorescence imaging using an IVIS Spectrum imaging system (ex/em: 620/670 nm, exposure: 1 s, bing: 4, F/Stop: 2). Following euthanasia, their cartilaginous tissues were harvested and imaged. The fluorescence images were analyzed and quantified as described above.

[1] = test system: human umbilical vein endothelial cells (HUVECs); experiment: CCK-8 cell viability assay on HUVECs; assay type: cell-based; conditions: 0-40 µM, 24 h, n = 6 wells
Description: The cultures were maintained under standard conditions of 37 °C and 5% CO2. Chondrocytes collected from the articular cartilage of Sprague‐Dawley (SD) rats (purchased from Jennio Biotech, JNO‐720) were cultured in DMEM medium (Precell, PM150210). Human venous endothelial cells (HUVECs, purchased from iCell, iCell‐h110) were cultured in HUVEC medium (iCell, iCell‐h110‐001b). Both cells were seeded in 96‐well plates at a density of 5000 cells per well. The medium was supplemented with 10% fetal bovine serum (FBS, Precell, 164210) and penicillin‐streptomycin (1:100 diluted from a 100× stock solution, ThermoFisher, 15140122) to support cell growth and prevent bacterial contamination. When cell confluency reached 80%, peptidomimetic probes at increasing concentrations ranging from 0 to 40 µM were added to the cell culture medium (n = 4 wells for chondrocytes, n = 6 wells for HUVECs; blank control group: 0 µM; cells cultured without probe). Following 24 h (or 72 h) of incubation, the medium was removed, and the cells were rinsed three times with 1× PBS buffer. Cell viability was assessed using the CCK‐8 assay kit (GLPBIO, GK10001−5) according to the manufacturer's instructions. After further incubation for 4 h, the optical density (OD) of the CCK‐8 solution was measured at 450 nm using a microplate reader (PerkinElmer, EnVision). For live‐dead cell staining, rat chondrocytes (5000 cells per well seeded, n = 4 wells per group) were cultured for 24 h in medium (without fetal bovine serum) containing 40 µM of each peptidomimetic probe in a 96‐well plate. […] The fluorescence images were obtained using an EVOS M7000 imaging system (Light cubes: GFP and RFP, Objective: 10×). A microscopic image was taken from the live (Calcein AM) staining of each well, and the total fluorescence signals were quantified for each image. The mean fluorescence level of each probe's group was normalized to the blank control group to estimate the relative cell viability. […] The fluorescence intensity of each well was measured by the microplate reader (Ex / Em: 620 /662 nm). […]

rat chondrocytes = experiment: CCK-8 cell viability assay on rat chondrocytes; assay type: cell-based; conditions: n = 4 wells
Description: The cultures were maintained under standard conditions of 37 °C and 5% CO2. Chondrocytes collected from the articular cartilage of Sprague‐Dawley (SD) rats (purchased from Jennio Biotech, JNO‐720) were cultured in DMEM medium (Precell, PM150210). Human venous endothelial cells (HUVECs, purchased from iCell, iCell‐h110) were cultured in HUVEC medium (iCell, iCell‐h110‐001b). Both cells were seeded in 96‐well plates at a density of 5000 cells per well. The medium was supplemented with 10% fetal bovine serum (FBS, Precell, 164210) and penicillin‐streptomycin (1:100 diluted from a 100× stock solution, ThermoFisher, 15140122) to support cell growth and prevent bacterial contamination. […] Cell viability was assessed using the CCK‐8 assay kit (GLPBIO, GK10001−5) according to the manufacturer's instructions. After further incubation for 4 h, the optical density (OD) of the CCK‐8 solution was measured at 450 nm using a microplate reader (PerkinElmer, EnVision). […] The fluorescence images were obtained using an EVOS M7000 imaging system (Light cubes: GFP and RFP, Objective: 10×). A microscopic image was taken from the live (Calcein AM) staining of each well, and the total fluorescence signals were quantified for each image. The mean fluorescence level of each probe's group was normalized to the blank control group to estimate the relative cell viability. […]

SMILES | in vivo retention in joints and ribs compared to peptide sequences Cy5-(GKO)7 and Cy5-R8 (cartilage; 1 nmol i.v., 0-96 h) | fluorescence in cartilage-rich tissues (knee joints, ribs) 2-96 h post-injection (cartilage; 1 nmol i.v., imaged at 2, 24, 48, 96 h) | cytotoxicity to HUVECs (CCK-8), in words [1] | cytotoxicity to HUVECs (CCK-8), in words ([1]; listed as Cy5-(NlysO)7) | cytotoxicity to chondrocytes over 72 h (CCK-8) (rat chondrocytes; tested concentrations 0-40 µM, 72 h) | time post-injection that in vivo signals in knee joints and thoracic costal cartilage remained detectable (cartilage; 1 nmol tail-vein injection, monitored over 96 h) | cytotoxicity to cultured chondrocytes (CCK8), in words (rat chondrocytes; 0-40 µM, 24 h)
CN1/C(=C/C=C/C=C/C2=[N+](CCCCCC(=O)NCCCCCC(=O)N(CCCCN)CC(=O)N3C[C@H](O)C[C@H]3C(=O)N(CCCCN)CC(=O)N3C[C@H](O)C[C@H]3C(=O)N(CCCCN)CC(=O)N3C[C@H](O)C[C@H]3C(=O)N(CCCCN)CC(=O)N3C[C@H](O)C[C@H]3C(=O)N(CCCCN)CC(=O)N3C[C@H](O)C[C@H]3C(=O)N(CCCCN)CC(=O)N3C[C@H](O)C[C@H]3C(=O)N(CCCCN)CC(=O)N3C[C@H](O)C[C@H]3C(N)=O)c3ccc(S(=O)(=O)[O-])cc3C2(C)C)C(C)(C)c2cc(S(=O)(=O)O)ccc21 [Cy5‐(NlysO)7] ({X1-Ahx}-[Nlys][Hyp][Nlys][Hyp][Nlys][Hyp][Nlys][Hyp][Nlys][Hyp][Nlys][Hyp][Nlys][Hyp]-NH2) | stronger retention in the joints and ribs in vivo | at 48 h but not 96 h | did not exhibit cytotoxicity | no apparent cytotoxicity at the tested concentrations | did not show cytotoxicity |  | 
CN1/C(=C/C=C/C=C/C2=[N+](CCCCCC(=O)NCCCCCC(=O)N[C@@H](CCCNC(=N)N)C(=O)N[C@@H](CCCNC(=N)N)C(=O)N[C@@H](CCCNC(=N)N)C(=O)N[C@@H](CCCNC(=N)N)C(=O)N[C@@H](CCCNC(=N)N)C(=O)N[C@@H](CCCNC(=N)N)C(=O)N[C@@H](CCCNC(=N)N)C(=O)N[C@@H](CCCNC(=N)N)C(N)=O)c3ccc(S(=O)(=O)[O-])cc3C2(C)C)C(C)(C)c2cc(S(=O)(=O)O)ccc21 [Cy5‐R8, reference compound] |  |  | significant cytotoxicity |  |  | difficult to find after 2 h post‐injection | significant cytotoxicity
